Common to all, as to assay: inhibition of tumour cell growth, NCI panel, 48 h
Assay [1] has as its system 786-0 renal.
The subject of assay [2] is BT-549 breast.
The test system of assay [3] is COLO 205 colon.
For assay [4], the system named is EKVX NSCLC.
In assay [5] the test system is HL-60(TB) leukemia.
Assay [6] relates to NCI-H23 lung.
The test system of assay [7] is NCI-H460 lung.
For assay [8], the system named is NCI/ADR-RES ovarian.
The test system of assay [9] is SF-295 CNS.
Assay [10] relates to SF-539 CNS.
Assay [11] relates to SR leukemia.

Where “and” joins values, the source holds several entries; their conditions need not be identical. Equal entries are not always repeated.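 Values below derive from 48-hour exposures of cells grown in 96-well plates, with endpoints linearly interpolated between the two concentrations bracketing the appropriate inhibition level. GI50 marks 50% less growth. At the TGI there is no net growth.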

With `COc1ccc(N2C(=O)C3c4[nH]c5ccc([N+](=O)[O-])cc5c4C4CCC(C(C)(C)C)CC4C3C2=O)cc1` (stereo not given), the TGI in assay [1] is 38 µM; in [2] it was greater than 100 µM; in [3], 69.6 µM; in assay [4], greater than 100 µM; in assay [5], 33.5 µM; in [6], 60.4 µM. The TGI in [7] was 63.9 µM; in assay [8], greater than 100 µM; in [9], greater than 100 µM; in assay [10] it was greater than 100 µM; in [11] it was 8.56 µM.
As for `COc1ccc(Nc2c(C#N)c3n(c4ccccc24)c2ccccc2[n+]3C)cc1OC`, the TGI was 8.77 µM in assay [1]; 42.6 µM in assay [2]; 12 µM in assay [3]; 10.1 µM in [4]; greater than 100 µM in assay [5]; 19.3 µM in assay [6]. Besides, the TGI in assay [7] is 6.46 µM; in assay [8], 17.6 µM; in assay [9], 11 µM; in assay [10] it was 6.88 µM; in assay [11] it was greater than 100 µM.
As to `COc1cc2oc(-c3ccc(O)cc3)c(OC3OC(C)C(O)C(O)C3O)c(=O)c2c(O)c1OC` (stereo not given), the TGI in [1], in assay [2], in assay [3], in assay [4], in [5] and in assay [6] was greater than 100 µM each time. Besides, the TGI in assay [7], in assay [8], in assay [9], in assay [10] and in [11] was greater than 100 µM throughout.
Consider `N#Cc1c(N)[nH]c(=S)c(C#N)c1-c1cccc(Cl)c1`, for which the TGI is 34.2 µM in assay [1]; greater than 100 µM in assay [2]; 40.9 µM in assay [3]; 97.9 µM in assay [4]; 65.2 µM in [5]; greater than 100 µM in [6]. Also, the TGI in [7] was greater than 100 µM; in assay [8], greater than 100 µM; in [9] it was greater than 100 µM; in [10], greater than 100 µM; in assay [11], 40.6 µM.
For the molecule `COC(=O)C1(Cc2ccccc2)Cc2cc3c(cc2C1=O)CCC3` (stereo not given), the TGI is greater than 100 µM in assay [1]; greater than 100 µM in [2]; 39.5 µM in assay [3]; 86.1 µM in [4]; 36.7 µM in [5]; greater than 100 µM in assay [6]. The TGI in [7] is 35 µM; in assay [8], greater than 100 µM; in assay [9] it was greater than 100 µM; in assay [10] it was greater than 100 µM; in assay [11], 47.2 µM.
For the molecule `Cc1c(S(=O)(=O)c2ccccc2)c(N)n(Cc2ccccc2)c1C`, the TGI in assay [1], in assay [2], in assay [3], in assay [4], in assay [5] and in assay [6] was greater than 100 µM in each case. The TGI in [7], in [8], in assay [9], in assay [10] and in assay [11] was greater than 100 µM each time.
Regarding `CCCCN(CC)c1nc(C)nc2c1c(C)c(C)n2-c1c(C)cc(C)cc1C`, the TGI worked out at 30.5 µM in [1]; 34.3 µM in assay [2]; 32.6 µM in [3]; 27.5 µM in [4]; 19.3 µM in assay [5]; 28.2 µM in assay [6]. The TGI was 27.5 µM in assay [7]; 27.6 µM in assay [8]; 28 µM in [9]; 6.46 µM in assay [10]; 31.9 µM in [11].
Turning to `COc1ccc(-c2c(C#N)c(S)n(C3OC(COC(C)=O)C(OC(C)=O)C(OC(C)=O)C3OC(C)=O)c(=O)c2C#N)cc1` (stereo not given), the TGI in [1] was > 100 µM and 80.9 µM; in assay [2] it was 74.4 µM and 79 µM; in assay [3], greater than 100 µM; in [4], greater than 100 µM; in assay [5], > 100 µM and 45.6 µM; in assay [6], greater than 100 µM. Further, the TGI in assay [7] was greater than 100 µM; in assay [8], greater than 100 µM; in [9], greater than 100 µM; in assay [10] it was greater than 100 µM; in assay [11], > 100 µM and 59.3 µM. Also, the GI50 in assay [3] is > 100 µM and 40.7 µM; in assay [9], 36.1 µM and 87.1 µM; in assay [11], 3.43 µM and 17.9 µM.
Consider `CC(=O)OCC1OC(N2C(=O)/C(=C\c3ccc(Cl)cc3)C(N)=Nc3ccccc32)C(OC(C)=O)C(OC(C)=O)C1OC(C)=O` (stereo not given), for which the TGI in assay [1] is 43.6 µM; in [2], greater than 100 µM; in assay [3], 29.8 µM; in assay [4] it was greater than 100 µM; in assay [5], greater than 100 µM; in assay [6] it was 68.7 µM. Moreover, the TGI in [7] is greater than 100 µM; in assay [8], greater than 100 µM; in [9], greater than 100 µM; in [10], 40.8 µM; in assay [11] it was 51.1 µM.
For the molecule `COc1ncc(C=C(C#N)C#N)c(OC)n1`, the TGI in assay [1] was 42.4 µM; in [2] it was greater than 100 µM; in assay [3] it was greater than 100 µM; in [4] it was greater than 100 µM; in assay [5] it was 49.7 µM; in assay [6] it was greater than 100 µM. For the same molecule, the TGI in [7] is greater than 100 µM; in assay [8], 64.1 µM; in assay [9], greater than 100 µM; in [10], greater than 100 µM; in [11], 53.5 µM.
Turning to `Clc1nc(Cl)nc(NC23CC4CC(CC(C4)C2)C3)n1`, the TGI in [1] stood at 31.2 µM; in [2], 35.6 µM; in assay [3], 35.5 µM; in assay [4], 37.4 µM; in [5] it was 16.5 µM; in assay [6], 34.1 µM. For the same molecule, the TGI in assay [7] was 60.4 µM; in [8], 44.5 µM; in assay [9], 45.9 µM; in assay [10], 35 µM; in assay [11], 47.7 µM.
With `COc1ccc(Nc2[nH]c(C(C)=O)c(N)c2C(=S)Nc2ccccc2)cc1`, the TGI in assay [1] was greater than 100 µM; in assay [2], greater than 100 µM; in assay [3] it was 48.1 µM; in [4], greater than 100 µM; in [5], greater than 100 µM; in [6], greater than 100 µM. Moreover, the TGI in assay [7], in assay [8], in assay [9], in assay [10] and in [11] was greater than 100 µM each time.

For the origin of these results see PubChem BioAssay (NCI).
